Among the test systems are CCRF-CEM; DU-145; EKVX; HCT-116; HT-29; IGROV-1; LOX IMVI; MCF7; MDA-MB-231; MDA-N; NCI-H23; OVCAR-4; OVCAR-5; OVCAR-8; SK-MEL-5; SNB-19; SR; T47D; U-251.
Common to all, as to assay: NCI tumour cell line growth inhibition, 48 h

Consider eleven compounds from ChEMBL document CHEMBL1201862, “PubChem BioAssay data set” (2004).

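Method: 48-hour compound exposure of cells in 96-well plates, five concentrations, linear interpolation of endpoints. GI50: concentration for 50% inhibition of growth.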 Activity calls are given as the source filed them. No stated cut-off is given here; in the data, active = GI50 up to about 1.1 µM and inactive = higher. Some results are limits rather than exact numbers.

With `COc1cc(C2c3cc4c(cc3OC(C)(N3CCCC3)C2C)OCO4)cc(OC)c1OC` (centres undefined), the GI50 in the assay with CCRF-CEM is 0.267 µM (active); with DU-145 it was 0.327 µM (active); with EKVX, 0.43 µM (active); in the assay on HCT-116, 0.433 µM (active); with HT-29, 0.293 µM (active); in the assay on IGROV-1, 0.435 µM (active). Further, the GI50 was 0.452 µM (active) in the assay with LOX IMVI; 0.457 µM (active) in the assay on MCF7; 0.551 µM (active) in the assay with MDA-MB-231; 0.154 µM (active) in the assay on MDA-N; 0.883 µM (active) in the assay with NCI-H23; 9.48 µM (inactive) in the assay with OVCAR-4. The GI50 in the assay on OVCAR-5 was 0.49 µM (active); in the assay on OVCAR-8 it was 0.472 µM (active); in the assay on SK-MEL-5 it was 0.247 µM (active); in the assay on SNB-19 it was 0.391 µM (active); with SR it was 0.0931 µM (active); in the assay on T47D it was 74.5 µM (inactive). Besides, the GI50 in the assay with U-251 was 0.385 µM (active).

As to `CCOC(=O)CC/C(=N/Nc1ccc(Cl)cc1[N+](=O)[O-])C(=O)OCC`, the GI50 in the assay with CCRF-CEM, in the assay on DU-145, in the assay with EKVX, in the assay on HCT-116, with HT-29 and with IGROV-1 was > 100 µM (inactive) throughout. The GI50 in the assay with LOX IMVI, in the assay with MCF7, in the assay with MDA-MB-231, in the assay on MDA-N, in the assay with NCI-H23 and in the assay on OVCAR-4 was > 100 µM (inactive) each time. The GI50 in the assay on OVCAR-5 was > 100 µM (inactive); with OVCAR-8 it was > 100 µM (inactive); in the assay with SK-MEL-5, > 100 µM (inactive); in the assay on SNB-19 it was > 100 µM (inactive); with SR it was 45.7 µM (inactive); in the assay with T47D, 93.3 µM (inactive). Besides, the GI50 in the assay on U-251 is > 100 µM (inactive).

For `CCOP(=O)(OCC)c1c(C(=O)OC)cc(=O)[nH]c1-c1ccc(C)cc1`, the GI50 was 2.02 µM (inactive) with CCRF-CEM; 12.9 µM (inactive) in the assay with DU-145; 3.73 µM (inactive) in the assay with EKVX; 13.8 µM (inactive) with HCT-116; 14.4 µM (inactive) with HT-29; 6.43 µM (inactive) in the assay on IGROV-1. The GI50 in the assay with LOX IMVI was 17.7 µM (inactive); in the assay on MCF7, 13.4 µM (inactive); in the assay with MDA-MB-231, 25.1 µM (inactive); in the assay on MDA-N, 24.8 µM (inactive); in the assay on NCI-H23, 16.9 µM (inactive); with OVCAR-4, 8.2 µM (inactive). Also, the GI50 in the assay with OVCAR-5 was 5.64 µM (inactive); in the assay with OVCAR-8 it was 17.7 µM (inactive); in the assay on SK-MEL-5 it was 13.3 µM (inactive); in the assay with SNB-19 it was 21.6 µM (inactive); in the assay with SR, 3.03 µM (inactive); in the assay on T47D, 2.58 µM (inactive). The GI50 in the assay on U-251 was 13.1 µM (inactive).

Turning to `CCN(CC)Cc1ccccc1CC(=O)N1c2ccccc2C(=O)Nc2cccnc21`, the GI50 in the assay on CCRF-CEM is 33.7 µM (inactive); with DU-145, > 100 µM (inactive); in the assay with EKVX it was > 100 µM (inactive); in the assay with HCT-116, 38.8 µM (inactive); in the assay on HT-29 it was > 100 µM (inactive); in the assay with IGROV-1, > 100 µM (inactive). In addition, the GI50 is > 100 µM (inactive) in the assay on LOX IMVI; 41.2 µM (inactive) in the assay on MCF7; > 100 µM (inactive) in the assay on MDA-MB-231; > 100 µM (inactive) in the assay on MDA-N; > 100 µM (inactive) in the assay on NCI-H23; > 100 µM (inactive) with OVCAR-4. In addition, the GI50 in the assay on OVCAR-5 was > 100 µM (inactive); in the assay with OVCAR-8, > 100 µM (inactive); in the assay with SK-MEL-5, > 100 µM (inactive); with SNB-19, > 100 µM (inactive); in the assay on SR, 34.3 µM (inactive); in the assay with T47D it was > 100 µM (inactive). For the same compound, the GI50 in the assay with U-251 is > 100 µM (inactive).

Turning to `CC/C(N)=N\NC(=O)OC(C)(C)C`, the GI50 in the assay with CCRF-CEM, in the assay with DU-145, in the assay with EKVX, in the assay with HCT-116, in the assay with HT-29 and in the assay on IGROV-1 was > 100 µM (inactive) throughout. Besides, the GI50 with LOX IMVI, in the assay with MCF7, in the assay on MDA-MB-231, with MDA-N, in the assay with NCI-H23 and in the assay on OVCAR-4 was > 100 µM (inactive) each time. Moreover, the GI50 in the assay on OVCAR-5, with OVCAR-8, with SK-MEL-5, in the assay with SNB-19, in the assay on SR and with T47D was > 100 µM (inactive) in each case. The GI50 in the assay on U-251 is > 100 µM (inactive).

Regarding `COc1cc(OC)c2c(=O)cc(-c3ccccc3F)[nH]c2c1`, the GI50 with CCRF-CEM was 88.9 µM (inactive); in the assay with DU-145 it was 76.4 µM (inactive); in the assay with EKVX, 86.5 µM (inactive); with HCT-116, 38.3 µM (inactive); in the assay with HT-29 it was 38.2 µM (inactive); with IGROV-1, 37.5 µM (inactive). Moreover, the GI50 in the assay with LOX IMVI was 61.1 µM (inactive); in the assay on MCF7, 54.5 µM (inactive); in the assay on MDA-MB-231 it was 76.7 µM (inactive); in the assay on MDA-N, 25.8 µM (inactive); with NCI-H23, 32.9 µM (inactive); in the assay on OVCAR-4, 14.2 µM (inactive). Besides, the GI50 in the assay with OVCAR-5 was 73.3 µM (inactive); in the assay on OVCAR-8, 51.4 µM (inactive); in the assay on SK-MEL-5 it was 30.3 µM (inactive); with SNB-19, 26 µM (inactive); with SR, 60.8 µM (inactive); in the assay with T47D it was 95.1 µM (inactive). Further, the GI50 in the assay on U-251 is 35.8 µM (inactive).

As to `COc1cc(C2c3cc4c(cc3OC(NNc3ccccc3)C2C)OCO4)cc(OC)c1OC` (centres undefined), the GI50 in the assay with CCRF-CEM was 0.885 µM (active); with DU-145, 2.11 µM (inactive); with EKVX, 1.73 µM (inactive); in the assay on HCT-116, 1.03 µM (active); in the assay with HT-29, 0.986 µM (active); in the assay with IGROV-1 it was 1.26 µM (inactive). Moreover, the GI50 was 0.706 µM (active) in the assay on LOX IMVI; 0.714 µM (active) in the assay with MCF7; 3.26 µM (inactive) with MDA-MB-231; 0.255 µM (active) in the assay with MDA-N; 2.83 µM (inactive) with NCI-H23; 4.94 µM (inactive) in the assay with OVCAR-4. The GI50 in the assay with OVCAR-5 was 1.69 µM (inactive); in the assay on OVCAR-8, 2.81 µM (inactive); in the assay on SK-MEL-5, 1.32 µM (inactive); with SNB-19, 1.32 µM (inactive); in the assay on SR, 0.673 µM (active); in the assay on T47D, 2.43 µM (inactive). In the assay with U-251, the GI50 was 1.12 µM (inactive).

As to `Cc1cc(=O)oc2c(CNC(CO)C(=O)O)c(O)ccc12` (centres undefined), the GI50 in the assay with CCRF-CEM, in the assay with DU-145, in the assay on EKVX, with HCT-116, in the assay on HT-29 and in the assay with IGROV-1 was > 100 µM (inactive) in each case. The GI50 in the assay on LOX IMVI, in the assay with MCF7, in the assay on MDA-MB-231, in the assay with MDA-N, in the assay with NCI-H23 and in the assay on OVCAR-4 was > 100 µM (inactive) throughout. Besides, the GI50 in the assay with OVCAR-5 is > 100 µM (inactive); in the assay with OVCAR-8 it was > 100 µM (inactive); in the assay on SK-MEL-5 it was > 100 µM (inactive); in the assay on SNB-19, > 100 µM (inactive); in the assay on SR, 94.2 µM (inactive); in the assay on T47D, > 100 µM (inactive). Further, the GI50 with U-251 is > 100 µM (inactive).

Turning to `CC(=O)NC(=N/N=C1/C(=O)Nc2ccc(C)cc21)NC(C)=O`, the GI50 with CCRF-CEM, in the assay with DU-145, in the assay with EKVX, in the assay with HCT-116, with HT-29 and in the assay on IGROV-1 was > 100 µM (inactive) in each case. In addition, the GI50 in the assay on LOX IMVI, in the assay with MCF7, in the assay on MDA-MB-231, in the assay on MDA-N, with NCI-H23 and with OVCAR-4 was > 100 µM (inactive) in each case. The GI50 with OVCAR-5, with OVCAR-8, in the assay on SK-MEL-5, in the assay on SNB-19, with SR and in the assay with T47D was > 100 µM (inactive) each time. Besides, the GI50 in the assay with U-251 was > 100 µM (inactive).

For `Cc1cc(=O)oc2cc3oc(N(C)c4ccccc4)nc(=O)c3cc12`, the GI50 in the assay with CCRF-CEM, in the assay with DU-145, with EKVX, in the assay on HCT-116, in the assay on HT-29 and with IGROV-1 was > 100 µM (inactive) each time. The GI50 with LOX IMVI, in the assay on MCF7, with MDA-MB-231, in the assay with MDA-N, in the assay on NCI-H23 and with OVCAR-4 was > 100 µM (inactive) throughout. The GI50 with OVCAR-5 is > 100 µM (inactive); in the assay on OVCAR-8 it was 42.4 µM (inactive); in the assay on SK-MEL-5, > 100 µM (inactive); in the assay on SNB-19 it was 67.9 µM (inactive); in the assay with SR it was 82.2 µM (inactive); in the assay with T47D, > 100 µM (inactive). Also, in the assay with U-251, the GI50 is 56 µM (inactive).

On to `Cc1nn(C(=O)c2ccccc2O)c2c1C(c1ccccc1)SC(=N)N2` (centres undefined), for which the GI50 is 2.36 µM (inactive) with CCRF-CEM; 0.627 µM (active) in the assay on DU-145; > 10 µM (inactive) with EKVX; 0.906 µM (active) with HCT-116; 5.38 µM (inactive) in the assay with HT-29; 0.481 µM (active) with IGROV-1. Also, the GI50 is 3.1 µM (inactive) with LOX IMVI; 2.81 µM (inactive) in the assay with MCF7; 0.811 µM (active) in the assay on MDA-MB-231; 1.2 µM (inactive) with MDA-N; 0.836 µM (active) in the assay on NCI-H23; 1.49 µM (inactive) in the assay on OVCAR-4. For the same compound, the GI50 with OVCAR-5 was 6.08 µM (inactive); with OVCAR-8, 0.867 µM (active); in the assay on SK-MEL-5 it was 3.19 µM (inactive); in the assay on SNB-19, 6.38 µM (inactive); in the assay with SR, 2.42 µM (inactive); in the assay with T47D, 5.43 µM (inactive). For the same compound, the GI50 in the assay on U-251 is 2.11 µM (inactive).
